In patent publication US20250221996A1, “HETEROCYCLIC COMPOUNDS, COMPOSITIONS THEREOF, AND METHODS OF TREATMENT THEREWITH” (BeiGene, Ltd., priority 2022, published 2025):

Tested on: pERK1/2(THR202/TYR204) level in AsPC-1 cells
Experiment: pERK assay (HTRF) in AsPC-1 cell line
Type: cell-based
Conditions: 2 h compound treatment
Protocol: AsPC-1 cell line was used in this study. Cells were maintained in RPMI-1640 supplemented with 10% fetal bovine serum (Thermo Fisher), 50 units/mL penicillin and streptomycin (Thermo Fisher) and kept at 37° C. in a humidified atmosphere of 5% CO2 in air. Cells were reinstated from frozen stocks that were laid down within 30 passages from the original cells purchased. 30000 cells per well were seeded into a 96-well plate and incubated overnight. Cells were treated with a 10-point dilution series. The final compound concentration is from 0 to 10 μM. After 2 h compound treatment, cells were lysed, and the pERK1/2(THR202/TYR204) level in the cell lysates was detected by HTRF kit (Cisbio). In brief, a total of 16 μL of cell lysate from each well of a 96-well plate was transferred to a 384-well white assay plate. Lysate from each well was incubated with 2 μL of Eu3+-cryptate (donor) labeled anti-phospho-ERK1/2 and 2 μL of D2 (acceptor) labeled anti-phospho-ERK1/2 antibodies (Cisbio) overnight in dark at room temperature. When donor and acceptor are in close proximity, excitation of the donor with laser triggers a Fluorescence Resonance Energy Transfer (FRET) towards the acceptor, which in turn fluoresces at 655 nm wavelength. FRET signals were measured using a PHERAstar FSX reader (BMG Labtech). IC50 determination was performed by fitting the curve of percent inhibition versus the log of the inhibitor concentration using Dotmatics.

| SMILES | IC50 (Homo sapiens, ASPC1, 2 h) [nM] | IC50 [nM] |
| --- | --- | --- |
| CC1(O)COCC1COc1nc(N2CC3CCC(C2)N3)c2cc(C(F)(F)F)c(-c3ccc(F)c4sc(N)c(C#N)c34)c(F)c2n1 (stereo not drawn) [Example 27, 4-(4-(3,8-diazabicyclo[3.2.1]octan-3-yl)-8-fluoro-2-((4-hydroxy-4-methyltetrahydrofuran-3-yl)methoxy)-6-(trifluoromethyl)quinazolin-7-yl)-2-amino-7-fluorobenzo[b]thiophene-3-carbonitrile] | 975 |  |
| CC(=O)N1CC2(COc3nc(N4CC5CCC(C4)N5)c4cc(C(F)(F)F)c(-c5ccc(F)c6sc(N)c(C#N)c56)c(F)c4n3)CC1C2 [Example 40, 4-(2-((2-acetyl-2-azabicyclo[2.1.1]hexan-4-yl)methoxy)-4-(3,8-diazabicyclo[3.2.1]octan-3-yl)-8-fluoro-6-(trifluoromethyl)quinazolin-7-yl)-2-amino-7-fluorobenzo[b]thiophene-3-carbonitrile] | 236 |  |
| CC1(COc2nc(N3CC4CCC(C3)N4)c3cc(C(F)(F)F)c(-c4ccc(F)c5sc(N)c(C#N)c45)c(F)c3n2)CN(C(=O)C2CC2)C1 [Example 31, 4-(4-(3,8-diazabicyclo[3.2.1]octan-3-yl)-2-((1-(cyclopropanecarbonyl)-3-methylazetidin-3-yl)methoxy)-8-fluoro-6-(trifluoromethyl)quinazolin-7-yl)-2-amino-7-fluorobenzo[b]thiophene-3-carbonitrile] | 299 |  |
| N#Cc1c(N)sc2c(F)ccc(-c3c(C(F)(F)F)cc4c(N5CC6CCC(C5)N6)nc(OCC56COC(CO)(C5)C6)nc4c3F)c12 [Example 21, 4-(4-(3,8-diazabicyclo[3.2.1]octan-3-yl)-8-fluoro-2-((1-(hydroxymethyl)-2-oxabicyclo[2.1.1]hexan-4-yl)methoxy)-6-(trifluoromethyl)quinazolin-7-yl)-2-amino-7-fluorobenzo[b]thiophene-3-carbonitrile] | 760 |  |
| N#Cc1c(N)sc2c(F)ccc(-c3c(C(F)(F)F)cc4c(N5CC6CCC(C5)N6)nc(OCC56COC(COC7CC7)(C5)C6)nc4c3F)c12 [Example 47, 4-(4-(3,8-diazabicyclo[3.2.1]octan-3-yl)-2-((1-(cyclopropoxymethyl)-2-oxabicyclo[2.1.1]hexan-4-yl)methoxy)-8-fluoro-6-(trifluoromethyl)quinazolin-7-yl)-2-amino-7-fluorobenzo[b]thiophene-3-carbonitrile] | 154 |  |
| N#Cc1c(N)sc2c(F)ccc(-c3c(C(F)(F)F)cc4c(N5CC6CCC(C5)N6)nc(OCC5(C(F)(F)F)CCOC5)nc4c3F)c12 (stereo not drawn) [Example 26, 4-(4-(3,8-diazabicyclo[3.2.1]octan-3-yl)-8-fluoro-6-(trifluoromethyl)-2-((3-(trifluoromethyl)tetrahydrofuran-3-yl)methoxy)quinazolin-7-yl)-2-amino-7-fluorobenzo[b]thiophene-3-carbonitrile] | 1460 |  |
| COCCNC1C[C@H]2CC[C@@H]1N2c1nc(OCC23COC(C2)C3)nc2c(F)c(-c3ccc(F)c4sc(N)c(C#N)c34)c(C(F)(F)F)cc12 (stereo partly drawn) [Example 41, 4-(2-((2-oxabicyclo[2.1.1]hexan-4-yl)methoxy)-8-fluoro-4-((1S,4R)-2-((2-methoxyethyl)amino)-7-azabicyclo[2.2.1]heptan-7-yl)-6-(trifluoromethyl)quinazolin-7-yl)-2-amino-7-fluorobenzo[b]thiophene-3-carbonitrile] | 860 |  |
| COC(=O)N1CC(COc2nc(N3CC4CCC(C3)N4)c3cc(C(F)(F)F)c(-c4ccc(F)c5sc(N)c(C#N)c45)c(F)c3n2)(OC)C1 [Example 20, methyl 3-(((7-(2-amino-3-cyano-7-fluorobenzo[b]thiophen-4-yl)-4-(3,8-diazabicyclo[3.2.1]octan-3-yl)-8-fluoro-6-(trifluoromethyl)quinazolin-2-yl)oxy)methyl)-3-methoxyazetidine-1-carboxylate] | 188 |  |
| CCC12CC(COc3nc(N4CC5CCC(C4)N5)c4cc(C(F)(F)F)c(-c5ccc(F)c6sc(N)c(C#N)c56)c(F)c4n3)(CO1)C2 [Example 12, 4-(4-(3,8-diazabicyclo[3.2.1]octan-3-yl)-2-((1-ethyl-2-oxabicyclo [2.1.1]hexan-4-yl)methoxy)-8-fluoro-6-(trifluoromethyl)quinazolin-7-yl)-2-amino-7-fluorobenzo[h]thiophene-3-carbonitrile] | 1730 |  |
| CC1(COc2nc(N3CC4CCC(C3)N4)c3cc(C(F)(F)F)c(-c4ccc(F)c5sc(N)c(C#N)c45)c(F)c3n2)CN(S(C)(=O)=O)C1 [Example 38, 4-(4-(3,8-diazabicyclo[3.2.1]octan-3-yl)-8-fluoro-2-((3-methyl-1-(methylsulfonyl)azetidin-3-yl)methoxy)-6-(trifluoromethyl)quinazolin-7-yl)-2-amino-7-fluorobenzo[b]thiophene-3-carbonitrile] | 180 |  |
| N#Cc1c(N)sc2c(F)ccc(-c3c(Cl)cc4c(N5CC6CCC(C5)N6)nc(OCC56COC(C5)C6)nc4c3F)c12 (single isomer, unassigned) [Example 2-Isomer 2, 4-(2-((2-oxabicyclo[2.1.1]hexan-4-yl)methoxy)-4-(3,8-diazabicyclo[3.2.1]octan-3-yl)-6-chloro-8-fluoroquinazolin-7-yl)-2-amino-7-fluorobenzo[b]thio phene-3-carbonitrile] |  | > 10000 |
| N#Cc1c(N)sc2c(F)ccc(-c3c(C(F)(F)F)cc4c(N5CC6CCC(C5)N6)nc(OCC5(F)CCOC5)nc4c3F)c12 (stereo not drawn) [Example 25, 4-(4-(3,8-diazabicyclo[3.2.1]octan-3-yl)-8-fluoro-2-((3-fluorotetra hydrofuran-3-yl)methoxy)-6-(trifluoromethyl)quinazolin-7-yl)-2-amino-7-fluoro benzo[b]thiophene-3-carbonitrile] | 201 |  |
| N#Cc1c(N)sc2c(F)ccc(-c3c(C(F)(F)F)cc4c(N5CC6CCC(C5)N6)nc(OCC5(C#N)CCOCC5)nc4c3F)c12 (single isomer, unassigned) [Example 22-Isomer 2, 4-(((7-(2-amino-3-cyano-7-fluorobenzo[b]thiophen-4-yl)-4-(3,8-diazabicyclo[3.2.1]octan-3-yl)-8-fluoro-6-(trifluoromethyl)quinazolin-2-yl)oxy)methyl)tetrahydro-2H-pyran-4-carbonitrile] |  | 72 |
| COC1(COc2nc(N3CC4CCC(C3)N4)c3cc(C(F)(F)F)c(-c4ccc(F)c5sc(N)c(C#N)c45)c(F)c3n2)CCOCC1 (single isomer, unassigned) [Example 4-Isomer 2, 4-(4-(3,8-diazabicyclo[3.2.1]octan-3-yl)-8-fluoro-2-((4-methoxytetrahydro-2H-pyran-4-yl)methoxy)-6-(trifluoromethyl)quinazolin-7-yl)-2-amino-7-fluorobenzo[b]thiophene-3 carbonitrile] | 100 |  |
| N#Cc1c(N)sc2c(F)ccc(-c3c(C(F)(F)F)cc4c(N5CC6CCC(C5)N6)nc(OCC5(CO)CCOCC5)nc4c3F)c12 [Example 50, 4-(4-(3,8-diazabicyclo[3.2.1]octan-3-yl)-8-fluoro-2-((4-(hydroxymethyl)tetrahydro-2H-pyran-4-yl)methoxy)-6-(trifluoromethyl)quinazolin-7-yl)-2-amino-7-fluorobenzo[b]thiophene-3-carbonitrile] | 193 |  |
